Reference: patent US20070032410A1, “COMPOSITIONS AND METHODS FOR THE TREATMENT OF PSYCHIATRIC DISORDERS” (Atossa Healthcare, Inc., priority 2000, published 2007)
*1 amine or outer side, *2 acyl side, *3 side chain or, on linkers, in order; H or OH if unused. Where a SMILES comes first, the peptide text is derived from it. Bridges are numbered along the chain shown (N, C = ends). X1 = O=C(CCC[*:2])[*:1]

Tested on: tracheal/bronchial epithelial cell membrane inserts (EpiAirway)
Assay: Permeation of carbetocin formulations across tracheal/bronchial epithelial cell membrane inserts (EIA of basolateral media)
Format: in vitro ADME
Conditions: human, 1 h
Protocol: Permeation studies on varying formulations of carbetocin were completed using tracheal/bronchial epithelial cell membrane inserts. Samples were evaluated for appearance, color, clarity, pH, osmolality, cell viability using an MTT assay, cytotoxicity using an LDH assay, and transepithelial resistance and permeation.
Tracheal/bronchial epithelial cell membrane inserts (EpiAirway, MatTek Corp., Ashland, Mass.) were received the day before the experiment. Each tissue insert was placed in a well of a 6 well plate which contained 0.9 ml of serum free media and cultured at 37° C. for 24 hours to allow the tissues to equilibrate. The day of the experiment, transepithelial electrical resistance measurements were taken for each insert using a Tissue Resistance Measurement Chamber connected to an Epithelial Voltohmeter (World Precision Instruments, Inc., Sarasota, Fla.).
After the background transepithelial electrical resistance was determined, 1 ml of media was placed in the bottom of each well in a six well plate. The inserts were inverted and drained and placed into new wells with fresh media. For samples 1-12, 100 μl of the formulation to be tested was then added to an insert. For samples 13-92, 25 μl of the formulation was added to each insert. The inserts were placed in a shaking incubator at 100 rpm and 37° C. for one hour. The tissue inserts were then removed from the incubator. […]

permeation: less than 1.0%
SMILES: CC[C@H](C)[C@@H]1NC(=O)[C@H](Cc2ccc(OC)cc2)NC(=O)CCCSC[C@@H](C(=O)N2CCC[C@H]2C(=O)N[C@@H](CC(C)C)C(=O)NCC(N)=O)NC(=O)[C@H](CC(N)=O)NC(=O)[C@H](CCC(N)=O)NC1=O [carbetocin, 1-butanoic acid-2-(O-methyl-L-tyrosine)-1-carbaoxytocin] (Y(Me)IQNCPLG-NH2; linker N-5 via X1)
